Reference: patent publication US20230085307A1, “PYRIDAZINONE COMPOUND AND HERBICIDE” (NISSAN CHEMICAL CORPORATION, priority 2019, published 2023)

Experiments:
late watergrass = test: Test Example 2: herbicidal activity, application during weed generation under submerged conditions (Table 17, symbol A); type: in vivo, late watergrass (Echinochloa oryzicola); conditions: AAH 178 g/ha; application during weed generation, submerged conditions
Outline: (§1)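 Effect on each weed is rated three weeks post-treatment, using the same scoring criteria as the preceding test. Plants grow from mixed-sown seed in flooded alluvial soil (4 cm water) at 25° C. to 30° C., and are treated at one to two leaves with diluted emulsion dropped onto the water.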

Japanese bulrush = test: Test Example 2: herbicidal activity, application during weed generation under submerged conditions (Table 17, symbol B); type: in vivo, Japanese bulrush (Schoenoplectus juncoides); conditions: AAH 178 g/ha; application during weed generation, submerged conditions
Outline: as §1

oval-leafed pondweed = test: Test Example 2: herbicidal activity, application during weed generation under submerged conditions (Table 17, symbol C); type: in vivo, oval-leafed pondweed (Monochoria vaginalis); conditions: AAH 178 g/ha; application during weed generation, submerged conditions
Outline: as §1

barnyard grass [1] = test: Test Example 3: herbicidal effect by foliage application, Wagner pot (Table 18, symbol H); type: in vivo, barnyard grass (Echinochloa crus-galli); conditions: 178 g/ha
Outline: (§2)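 Plants were sown in alluvial soil held under 0.1–0.5 cm standing water and grown 14 days in a greenhouse at 25–30 °C. An emulsifiable formulation, water-diluted to the set dose, was then sprayed onto the foliage, and effects were scored three weeks later using previously defined criteria.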

Chinese sprangletop = test: Test Example 3: herbicidal effect by foliage application, Wagner pot (Table 18, symbol D); type: in vivo, chinese sprangletop (Leptochloa chinensis); conditions: 178 g/ha
Outline: as §2

rice flat sedge = test: Test Example 3: herbicidal effect by foliage application, Wagner pot (Table 18, symbol E); type: in vivo, rice flat sedge (Cyperus iria); conditions: 178 g/ha
Outline: as §2

southern crabgrass [2] = test: Test Example 4: herbicidal effect by soil treatment (Table 19, symbol F); type: in vivo, southern crabgrass (Digitaria ciliaris); conditions: AAH 178 g/ha
Outline: (§3)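 Soil-surface application: an emulsion agent diluted with water to the predetermined dose is sprayed uniformly over seeds lying under roughly 1.5 cm of sterilized diluvial soil. Boxes stay in a greenhouse at 25° C. to 30° C. Three weeks later, each species is graded on previously defined criteria.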

green foxtail [3] = test: Test Example 4: herbicidal effect by soil treatment (Table 19, symbol G); type: in vivo, green foxtail (Setaria viridis); conditions: AAH 178 g/ha
Outline: as §3

barnyard grass [4] = test: Test Example 4: herbicidal effect by soil treatment (Table 19, symbol H); type: in vivo, barnyard grass (Echinochloa crus-galli); conditions: AAH 178 g/ha
Outline: as §3

wild oat [5] = test: Test Example 4: herbicidal effect by soil treatment (Table 19, symbol I); type: in vivo, wild oat (Avena fatua); conditions: AAH 178 g/ha
Outline: as §3

blackgrass [6] = test: Test Example 4: herbicidal effect by soil treatment (Table 19, symbol J); type: in vivo, blackgrass (Alopecurus myosuroides); conditions: AAH 178 g/ha
Outline: as §3

Italian ryegrass [7] = test: Test Example 4: herbicidal effect by soil treatment (Table 19, symbol K); type: in vivo, Italian ryegrass (Lolium multiflorum); conditions: AAH 178 g/ha
Outline: as §3

windgrass [8] = test: Test Example 4: herbicidal effect by soil treatment (Table 19, symbol L); type: in vivo, windgrass (Apera spica-venti); conditions: AAH 178 g/ha
Outline: as §3

velvetleaf [9] = test: Test Example 4: herbicidal effect by soil treatment (Table 19, symbol M); type: in vivo, velvetleaf (Abutilon theophrasti); conditions: AAH 178 g/ha
Outline: as §3

redroot pigweed = test: Test Example 4: herbicidal effect by soil treatment (Table 19, symbol N); type: in vivo, redroot pigweed (Amaranthus retroflexus); conditions: AAH 178 g/ha
Outline: as §3

lambsquarters [10] = test: Test Example 4: herbicidal effect by soil treatment (Table 19, symbol O); type: in vivo, lambsquarters (Chenopodium album); conditions: AAH 178 g/ha
Outline: as §3

chickweed = test: Test Example 4: herbicidal effect by soil treatment (Table 19, symbol P); type: in vivo, common chickweed (Stellaria media); conditions: AAH 178 g/ha
Outline: as §3

false cleavers = test: Test Example 4: herbicidal effect by soil treatment (Table 19, symbol Q); type: in vivo, false cleavers (Galium spurium); conditions: AAH 178 g/ha
Outline: as §3

persian speedwell [11] = test: Test Example 4: herbicidal effect by soil treatment (Table 19, symbol R); type: in vivo, Persian speedwell (Veronica persica); conditions: AAH 178 g/ha
Outline: as §3

southern crabgrass [12] = test: Test Example 5: herbicidal effect by foliage application, plastic box (Table 20, symbol F); type: in vivo, southern crabgrass (Digitaria ciliaris); conditions: foliage application, 178 g/ha, 3 weeks after application
Outline: (§4)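 Sow seeds spot-wise in sterilized diluvial soil; cover with ~1.5 cm soil. Grow 14 days in greenhouse, 25° C. to 30° C. Spray foliage with emulsion diluted to predetermined amount. Rate effect after 3 weeks.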

green foxtail [13] = test: Test Example 5: herbicidal effect by foliage application, plastic box (Table 20, symbol G); type: in vivo, green foxtail (Setaria viridis); conditions: foliage application, 178 g/ha, 3 weeks after application
Outline: as §4

barnyard grass [14] = test: Test Example 5: herbicidal effect by foliage application, plastic box (Table 20, symbol H); type: in vivo, barnyard grass (Echinochloa crus-galli); conditions: foliage application, 178 g/ha, 3 weeks after application
Outline: as §4

wild oat [15] = test: Test Example 5: herbicidal effect by foliage application, plastic box (Table 20, symbol I); type: in vivo, wild oat (Avena fatua); conditions: foliage application, 178 g/ha, 3 weeks after application
Outline: as §4

blackgrass [16] = test: Test Example 5: herbicidal effect by foliage application, plastic box (Table 20, symbol J); type: in vivo, blackgrass (Alopecurus myosuroides); conditions: foliage application, 178 g/ha, 3 weeks after application
Outline: as §4

Italian ryegrass [17] = test: Test Example 5: herbicidal effect by foliage application, plastic box (Table 20, symbol K); type: in vivo, Italian ryegrass (Lolium multiflorum); conditions: foliage application, 178 g/ha, 3 weeks after application
Outline: as §4

windgrass [18] = test: Test Example 5: herbicidal effect by foliage application, plastic box (Table 20, symbol L); type: in vivo, windgrass (Apera spica-venti); conditions: foliage application, 178 g/ha, 3 weeks after application
Outline: as §4

velvetleaf [19] = test: Test Example 5: herbicidal effect by foliage application, plastic box (Table 20, symbol M); type: in vivo, velvetleaf (Abutilon theophrasti); conditions: foliage application, 178 g/ha, 3 weeks after application
Outline: as §4

lambsquarters [20] = test: Test Example 5: herbicidal effect by foliage application, plastic box (Table 20, symbol O); type: in vivo, lambsquarters (Chenopodium album); conditions: foliage application, 178 g/ha, 3 weeks after application
Outline: as §4

persian speedwell [21] = test: Test Example 5: herbicidal effect by foliage application, plastic box (Table 20, symbol R); type: in vivo, Persian speedwell (Veronica persica); conditions: foliage application, 178 g/ha, 3 weeks after application
Outline: as §4

Structure (SMILES): COCCOCOc1c(C)nn(C)c(=O)c1-c1c(-c2ccc(OC(F)F)cc2)sc2ccccc12 [1-202]
- herbicidal effect rating, A: late watergrass (late watergrass): 2 (Herbicidal rate of 20% or more and less than 40%)
- herbicidal effect rating, B: Japanese bulrush (Japanese bulrush): 3 (Herbicidal rate of 40% or more and less than 70%)
- herbicidal effect rating, C: oval-leafed pondweed (oval-leafed pondweed): 0 (Herbicidal rate of 5% or less (almost no effect))
- herbicidal effect on H (barnyard grass), rating 0-5 (barnyard grass [1]): 5 (Herbicidal rate of 90% or more (almost completely withered))
- herbicidal effect on D (Chinese sprangletop), rating 0-5 (Chinese sprangletop): 3 (Herbicidal rate of 40% or more and less than 70%)
- herbicidal effect on E (rice flat sedge), rating 0-5 (rice flat sedge): 5 (Herbicidal rate of 90% or more (almost completely withered))
- F: southern crabgrass, herbicidal effect rating (southern crabgrass [2]): 0 (Herbicidal rate of 5% or less (almost no effect))
- G: green foxtail, herbicidal effect rating (green foxtail [3]): 4 (Herbicidal rate of 70% or more and less than 90%)
- H: barnyard grass, herbicidal effect rating (barnyard grass [4]): 3 (Herbicidal rate of 40% or more and less than 70%)
- I: wild oat, herbicidal effect rating (wild oat [5]): 0 (Herbicidal rate of 5% or less (almost no effect))
- J: blackgrass, herbicidal effect rating (blackgrass [6]): 0 (Herbicidal rate of 5% or less (almost no effect))
- K: Italian ryegrass, herbicidal effect rating (Italian ryegrass [7]): 4 (Herbicidal rate of 70% or more and less than 90%)
- L: windgrass, herbicidal effect rating (windgrass [8]): 0 (Herbicidal rate of 5% or less (almost no effect))
- M: velvetleaf, herbicidal effect rating (velvetleaf [9]): 2 (Herbicidal rate of 20% or more and less than 40%)
- N: redroot pigweed, herbicidal effect rating (redroot pigweed): 5 (Herbicidal rate of 90% or more (almost completely withered))
- O: lambsquarters, herbicidal effect rating (lambsquarters [10]): 4 (Herbicidal rate of 70% or more and less than 90%)
- P: chickweed, herbicidal effect rating (chickweed): 3 (Herbicidal rate of 40% or more and less than 70%)
- Q: false cleavers, herbicidal effect rating (false cleavers): 3 (Herbicidal rate of 40% or more and less than 70%)
- R: persian speedwell, herbicidal effect rating (persian speedwell [11]): 4 (Herbicidal rate of 70% or more and less than 90%)
- effect on southern crabgrass (F) (southern crabgrass [12]): 1 (Herbicidal rate of 5% or more and less than 20%)
- effect on green foxtail (G) (green foxtail [13]): 5 (Herbicidal rate of 90% or more (almost completely withered))
- effect on barnyard grass (H) (barnyard grass [14]): 4 (Herbicidal rate of 70% or more and less than 90%)
- effect on wild oat (I) (wild oat [15]): 0 (Herbicidal rate of 5% or less (almost no effect))
- effect on blackgrass (J) (blackgrass [16]): 3 (Herbicidal rate of 40% or more and less than 70%)
- effect on Italian ryegrass (K) (Italian ryegrass [17]): 5 (Herbicidal rate of 90% or more (almost completely withered))
- effect on windgrass (L) (windgrass [18]): 0 (Herbicidal rate of 5% or less (almost no effect))
- effect on velvetleaf (M) (velvetleaf [19]): 5 (Herbicidal rate of 90% or more (almost completely withered))
- effect on lambsquarters (O) (lambsquarters [20]): 5 (Herbicidal rate of 90% or more (almost completely withered))
- effect on persian speedwell (R) (persian speedwell [21]): 5 (Herbicidal rate of 90% or more (almost completely withered))
